As usually defined, the IC50 is the point on the concentration scale where inhibition reaches its midpoint. A low value points to greater potency.

A value given as a limit tells only on which side of the number the result lay.

The target of this test is cAMP-dependent protein kinase catalytic subunit beta (Homo sapiens) (UniProt P22694). The experiment in a line: Inhibition of PKAbeta.

In the case of `Cc1ccc(C(=O)Nc2ccon2)cc1NC(=O)c1cnn(-c2ccccc2F)c1N` [5-amino-1-(2-fluorophenyl)-N-(5-(isoxazol-3-ylcarbamoyl)-2-methylphenyl)-1H-pyrazole-4-carboxamide], the IC50 is > 40 µM.
